{"source": "PubChem BioAssay (NCI)", "assay_in_all_cases": "NCI tumour cell line growth inhibition, 48 h", "key": {"ACHN renal": {"tested_on": "ACHN renal"}, "BT-549 breast": {"tested_on": "BT-549 breast"}, "CAKI-1 renal": {"tested_on": "CAKI-1 renal"}, "CCRF-CEM leukemia": {"tested_on": "CCRF-CEM leukemia"}, "DU-145 prostate": {"tested_on": "DU-145 prostate"}, "HL-60(TB) leukemia": {"tested_on": "HL-60(TB) leukemia"}, "K-562 leukemia": {"tested_on": "K-562 leukemia"}, "NCI-H23 lung": {"tested_on": "NCI-H23 lung"}, "SF-539 CNS": {"tested_on": "SF-539 CNS"}, "TK-10 renal": {"tested_on": "TK-10 renal"}}, "note": "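A five-concentration, 48-hour dose response in 96-well plates underlies each endpoint, interpolated linearly between surrounding concentrations. TGI marks complete inhibition of growth.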"}
{"smiles": "C[C@]12CC[C@H]3[C@@H](CC=C4C[C@@H](N5CCCC5)CC[C@@]43C)[C@@H]1C[C@H](N1CCCCC1)[C@@H]2O", "values": [{"measurement": "TGI", "setting": "ACHN renal", "result": "> 100", "unit": "µM"}, {"measurement": "TGI", "setting": "BT-549 breast", "result": "> 100", "unit": "µM"}, {"measurement": "TGI", "setting": "CAKI-1 renal", "result": "> 100", "unit": "µM"}, {"measurement": "TGI", "setting": "CCRF-CEM leukemia", "result": "> 100", "unit": "µM"}, {"measurement": "TGI", "setting": "DU-145 prostate", "result": "> 100", "unit": "µM"}, {"measurement": "TGI", "setting": "HL-60(TB) leukemia", "result": "> 100", "unit": "µM"}, {"measurement": "TGI", "setting": "K-562 leukemia", "result": 49.6, "unit": "µM"}, {"measurement": "TGI", "setting": "NCI-H23 lung", "result": "> 100", "unit": "µM"}, {"measurement": "TGI", "setting": "SF-539 CNS", "result": "> 100", "unit": "µM"}, {"measurement": "TGI", "setting": "TK-10 renal", "result": "> 100", "unit": "µM"}]}
{"smiles": "Cn1c(=O)c2c(nc3[nH]c(=O)c(Br)cn32)n(C)c1=O", "values": [{"measurement": "TGI", "setting": "ACHN renal", "result": "> 100", "unit": "µM"}, {"measurement": "TGI", "setting": "BT-549 breast", "result": "> 100", "unit": "µM"}, {"measurement": "TGI", "setting": "CAKI-1 renal", "result": "> 100", "unit": "µM"}, {"measurement": "TGI", "setting": "CCRF-CEM leukemia", "result": "> 100", "unit": "µM"}, {"measurement": "TGI", "setting": "DU-145 prostate", "result": "> 100", "unit": "µM"}, {"measurement": "TGI", "setting": "HL-60(TB) leukemia", "result": "> 100", "unit": "µM"}, {"measurement": "TGI", "setting": "K-562 leukemia", "result": "> 100", "unit": "µM"}, {"measurement": "TGI", "setting": "NCI-H23 lung", "result": "> 100", "unit": "µM"}, {"measurement": "TGI", "setting": "SF-539 CNS", "result": "> 100", "unit": "µM"}, {"measurement": "TGI", "setting": "TK-10 renal", "result": "> 100", "unit": "µM"}]}
